# Data from ChEMBL document CHEMBL4371025, “Discovery and evaluation of novel FAAH inhibitors in neuropathic pain model” (Bioorg Med Chem Lett, 2019).
# How the values were obtained:
# CYP2C9 [1] = experiment: Selectivity ratio of IC50 for CYP2C9 in human liver microsomes to IC50 for human transmembrane domain deficient FFAH expressed in Escherichia coli; type: toxicity; conditions: read-out: Ratio IC50
# CYP3A4 = experiment: Selectivity ratio of IC50 for CYP3A4 in human liver microsomes using testosterone as substrate to IC50 for rat FFAH expressed in Escherichia coli; type: toxicity; conditions: probe testosterone, read-out: Ratio IC50
# CYP1A2 = experiment: Selectivity ratio of IC50 for CYP1A2 in human liver microsomes to IC50 for rat FFAH expressed in Escherichia coli; type: toxicity; conditions: read-out: Ratio IC50
# [2] = Drug uptake in Sprague-Dawley rat brain at 3 mg/kg, iv or 10 mg/kg, po administered as single dose via gavage by LC-MS/MS analysis; type: ADME, organism-based; conditions: in vivo
# [3] = Selectivity ratio of IC50 for MAGL (unknown origin) to IC50 for human transmembrane domain deficient FFAH expressed in Escherichia coli; type: toxicity
# CYP2C19 = experiment: Selectivity ratio of IC50 for CYP2C19 in human liver microsomes to IC50 for rat FFAH expressed in Escherichia coli; type: toxicity; conditions: read-out: Ratio IC50
# CYP2C9 [4] = experiment: Selectivity ratio of IC50 for CYP2C9 in human liver microsomes to IC50 for rat FFAH expressed in Escherichia coli; type: toxicity; conditions: read-out: Ratio IC50
# CYP2D6 [5] = experiment: Selectivity ratio of IC50 for CYP2D6 in human liver microsomes to IC50 for rat FFAH expressed in Escherichia coli; type: toxicity; conditions: read-out: Ratio IC50
# CYP2D6 [6] = experiment: Selectivity ratio of IC50 for CYP2D6 in human liver microsomes to IC50 for human transmembrane domain deficient FFAH expressed in Escherichia coli; type: toxicity; conditions: read-out: Ratio IC50
# [7] = Drug level in plasma of Sprague-Dawley rat at 10 mg/kg, po administered as single dose via gavage measured at 12 hrs by LC-MS/MS analysis; type: ADME, organism-based
# [8] = Drug level in liver of Sprague-Dawley rat at 10 mg/kg, po administered as single dose via gavage measured at 12 hrs by LC-MS/MS analysis; type: ADME, organism-based; conditions: read-out: Drug uptake
# [9] = Drug level in brain of Sprague-Dawley rat at 10 mg/kg, po administered as single dose via gavage measured at 12 hrs by LC-MS/MS analysis; type: ADME, organism-based; conditions: read-out: Drug uptake
SMILES,selectivity ratio (CYP2C9 [1]),selectivity ratio (CYP3A4),selectivity ratio (CYP1A2),Drug uptake [2] [%],Ratio IC50 [3],selectivity ratio (CYP2C19),selectivity ratio (CYP2C9 [4]),selectivity ratio (CYP2D6 [5]),selectivity ratio (CYP2D6 [6]),concentration at 12 h [7] [µM],concentration at 12 h [8] [µM],concentration at 12 h [9] [µM]
Nc1ncc(C(=O)N[C@H]2CC/C(=C\c3cccc(Oc4ccc(C(F)(F)F)cn4)c3)CC2)cn1 (stereo unspecified),> 5000,> 5000,> 5000,50 to 80,> 10000,> 5000,> 5000,> 5000,> 5000,,,
Cc1cc(C(=O)N[C@H]2CC/C(=C\c3cccc(Oc4ccc(C(F)(F)F)cn4)c3)CC2)cnc1N (stereo unspecified),> 5000,> 5000,> 5000,50 to 80,> 10000,> 5000,> 5000,> 5000,> 5000,,,
O=C(N[C@H]1CC/C(=C\c2cccc(Oc3ccc(C(F)(F)F)cn3)c2)CC1)c1cccnc1 (stereo unspecified),,,,,,,,,,1.9,21,3.6
